Source: US9586885B2, “Compounds for use in the treatment of inflammatory bowel disease” (Venantius Limited, priority 2011, dated 2017)
Where two headings read alike, the source gives them in different places.

Experiments:
[1] = Partition coefficient by HPLC method (reverse phase C18); assay type: physicochemical; conditions: for Acid Log10 POW: acidic pH; for Basic Log10 POW: alkaline pH; for Neutral Log10 POW: neutral pH
[2] = Solubility in water and buffers; assay type: physicochemical; conditions: for aqueous solubility (in words): free acid enantiomers
Procedure: The sodium salt, potassium salt, calcium salt, α-methylbenzylamine salt and N-Methyl-(D)-Glucamine salt were synthesised.
The solubility of the four compounds was determined: […]

5% DSS colitis = test: Acute murine 5% DSS colitis model; assay type: in vivo; conditions: for effect on DAI compared to vehicle control: FIG. 5; for inhibition of colon shortening (colon length) day 7 versus vehicle: FIG. 10; for colon pathology (histology score) relative to vehicle: FIG. 12; for colon IL1β level versus DSS vehicle / colon TNFα level versus DSS vehicle / colon IL6 level versus DSS vehicle / reduction of colonic myeloperoxidase (MPO) activity: day 7; for colon IL1β level versus DSS vehicle: FIG. 14(a); for colon TNFα level versus DSS vehicle: FIG. 14(b); for colon IL6 level versus DSS vehicle: FIG. 14(c); for reduction of colonic myeloperoxidase (MPO) activity: FIG. 13; for DAI on the day of autopsy versus vehicle controls: FIG. 9
Excerpt: The study is widely used as a model for studying the pathogenesis of UC and also for screening new therapeutic interventions for the treatment of UC.
In these studies, an acute colitis model was used, with 5% DSS administered in the drinking water of BALB/c mice. This dosage regime induces severe acute colitis, by days 7-8 mice had overt rectal bleeding and marked weight loss; unless sacrificed beforehand, all mice would have died by days 10-12.
Specific Pathogen-Free BALB/c mice, 6-8 weeks of age, were obtained from a commercial supplier (Harlan UK). Mice were fed irradiated diet and housed in individually ventilated cages (Tecniplast UK) under positive pressure.
DSS (5%) was dissolved in drinking water. Compounds were administered orally at a dose of 10 mg/kg or 30 mg/kg on days 0-7, and mice were culled on day 8 or day 9, depending on the severity of the disease. The mice were checked each day for morbidity and the weight of individual mice was recorded. Induction of colitis was determined upon autopsy, length of colon and histology. Colons were recovered and stored at −20° C. for immunological analysis. All of the compounds and experimental groups are randomly alphabetically labelled. Throughout experiments all data recording was performed in a blind manner. The codes on boxes/groups were not broken until after the data was analysed i.e. boxes labelled A, B, C etc were identified as untreated, DSS-treated, or DSS+compound-treated.
To quantify the extent of colitis, a disease activity index (DAI) was determined based on weight loss, faecal blood and stool consistency. A score was given for each parameter, with the sum of the scores used as the DAI. For each treatment group n=8.
All compounds were prepared for oral gavage (0.1 mL per os (p.o.) per 10 g body weight) as a suspension in 0.5% carboxymethyl cellulose/2% Tween 80, at a dose of 3-30 mg/Kg.

[3] = test system: chronic colitis in IL10^--/-- mice; test: Chronic IL10-/- colitis model; assay type: in vivo, BALB/c strain mice; conditions: 300 mg/kg/week oral, MWF
Procedure: FIG. 15 Is a grph showing weight loss in IL10^--/--mice treated with vehicle or compound 6. Mice were administered compound 6 (300 mg/kg/week) or vehicle orally on a Monday/Wednesday/Friday (MWF) dosing schedule. Mice were ˜4 weeks of age at start of experiment and were treated for 9 weeks. Mice were weighed weekly and data are presented as Mean±SEM from 9-12 mice per group. Mice were monitored for overt disease, rectal prolapse, and moribund animals were humanely killed;
Mice with a deletion in the IL10^--/-- gene spontaneously develop chronic colitis, with the age of onset and the severity of the disease being dependent on background mouse strain and the conditions in which the animals are housed. The onset of colitis in IL10^--/-- mice housed under the conditions used in this study was also strain dependent, with an earlier onset and greater severity, in terms of mortality, in BALB/c strain mice relative to C57BL/6 strain animals. In this experiment, animals received oral treatment on a MWF regime over 9 weeks. Initially, both groups of mice progressively gain weight (FIG. 15). […] By week 9 animals had marked weight loss, with one moribund animal humanely killed on day 60 in each group. As other mice were losing weight and developing clinical symptoms of disease, both groups were culled at week 9 (day 63) and analysed. […] Serum was recovered from mice and Serum Amyloid A (SAA) and was analysed as a marker for severity of colitis.

[4] = 30 mg/kg p.o. daily for 7 days, vehicle controls 9.0+0.53, FIG. 4
[5] = 10 mg/kg daily for 7 days, vehicle 9.3±0.51, FIG. 6

## O=C(O)c1ccc(C[C@]2(C3=Cc4ccccc4C3)Cc3ccccc3[C@H]2O)cc1 [Compound 5, 4-(((1S,2R)-1-hydroxy-2,3-dihydro-1H,1′H-2,2′-biinden-2-yl)methyl)benzoic acid]
[1]
  Acid Log10 POW: 3.9
  Basic Log10 POW: 3.7
  Neutral Log10 POW: 3.7
[2]
  aqueous solubility (in words): limited aqueous solubility
5% DSS colitis; 10 mg/kg daily for 7 days
  effect on DAI compared to vehicle control: no significant (P>0.05) effect
5% DSS colitis; 30 mg/kg p.o. daily for 7 days
  activity in 5% DSS murine colitis model (conclusion): highly active
5% DSS colitis; [4]
  disease activity index (DAI) at day 7: 3.2±0.73

## O=C(O)c1ccc(C[C@@]2(C3=Cc4ccccc4C3)Cc3ccccc3[C@H]2O)cc1 [Compound 6, 6-(Methylamino)hexane-1,2,3,4,5-pentanol 4-(((1S,2S)-1-hydroxy-2,3-dihydro-1H,1′H-2,2′-biinden-2-yl)methyl)benzoate]
[3]
  survival over 9 weeks by Kaplan-Meier analysis versus vehicle: no statistical difference in survival
[3]; 9 weeks, vehicle 25%
  mortalities: 9.2%
[3]; 9 weeks, vehicle stopped gaining from week 5, FIG. 15
  weight gain: maintained weight gain until week 8
[3]; week 9, FIG. 16
  Serum Amyloid A (SAA) levels relative to vehicle: significantly (P<0.05; Student's t-test) reduced SAA levels
[3]; week 9, P<0.05, FIG. 18
  extent of colon pathology (histology score of distal colon) relative to vehicle: significantly reduced
[1]
  Acid Log10 POW: 2.6
  Basic Log10 POW: 4.3
  Neutral Log10 POW: 3.5
[2]; Milli-RO water, * = estimated value, read-out: solubility Milli-RO H20
  solubility: > 60 mg/mL
[2]; aqueous buffer, pH 7.0 buffer, * = estimated value, read-out: solubility pH 7.0 Buffer
  solubility: > 60 mg/mL
[2]; aqueous buffer, pH 9.0 buffer, * = estimated value, read-out: solubility pH 9.0 Buffer
  solubility: > 3 mg/mL
5% DSS colitis; 3 mg/kg
  inhibition of colon shortening (colon length) day 7 versus vehicle: did not have a significant effect
5% DSS colitis; 10 mg/Kg, P<0.01
  colon pathology (histology score) relative to vehicle: highly statistically significant reduction
5% DSS colitis; [5]
  disease activity index (DAI) at day 7: 3.3±0.52
5% DSS colitis; 10 mg/kg
  inhibition of colon shortening (colon length) day 7 versus vehicle: did have a significant effect
5% DSS colitis; 30 mg/Kg versus prednisolone 5 mg/Kg
  therapeutic efficacy in the DSS model relative to prednisolone: comparable, or better, efficacy relative to prednisolone
5% DSS colitis; 30 mg/Kg, P<0.01
  colon pathology (histology score) relative to vehicle: highly statistically significant reduction
5% DSS colitis; 30 mg/kg versus Prednisolone 5 mg/kg, P<0.05
  colon length day 7 compared with Prednisolone: significantly better than Prednisolone
5% DSS colitis; 30 mg/kg
  colon IL1β level versus DSS vehicle: significant (P<0.05, 30 mg/kg) and dose-dependant reduction
  colon TNFα level versus DSS vehicle: significant (P<0.05, 30 mg/kg) and dose-dependant reduction
  colon IL6 level versus DSS vehicle: significant (P<0.05, 30 mg/kg) and dose-dependant reduction
  inhibition of colon shortening (colon length) day 7 versus vehicle: did have a significant effect
5% DSS colitis; 30 mg/kg, P<0.05
  reduction of colonic myeloperoxidase (MPO) activity: 63%
5% DSS colitis; 3, 10 and 30 mg/Kg oral daily for 7 days, dose-dependent
  severity of colitis, multiple parameters of disease: ameliorated the severity of colitis
5% DSS colitis; 3-30 mg/kg, each dose level
  DAI on the day of autopsy versus vehicle controls: significantly (P<0.05−P<0.01) lower DAI
5% DSS colitis; oral daily for 7 days, 3, 10 and 30 mg/Kg
  overt reactions in mice: no overt reactions

## O=C(O)c1ccc(C[C@@]2(C3=Cc4ccccc4C3)Cc3ccccc3[C@@H]2O)cc1 [Compound 4, 4-(((1R,2S)-1-hydroxy-2,3-dihydro-1H,1′H-2,2′-biinden-2-yl)methyl)benzoic acid]
5% DSS colitis; 30 mg/kg p.o. daily for 7 days
  activity in 5% DSS murine colitis model (conclusion): almost devoid of activity
5% DSS colitis; 30 mg/kg p.o. daily for 7 days, FIG. 3
  DAI versus vehicle at any time point: without activity

## CNCC(O)C(O)C(O)C(O)CO.O=C(O)c1ccc(C[C@]2(C3=Cc4ccccc4C3)Cc3ccccc3[C@H]2O)cc1 [Compound 7, 6-(Methylamino)hexane-1,2,3,4,5-pentanol 4-(((1S,2R)-1-hydroxy-2,3-dihydro-1H,1′H-2,2′-biinden-2-yl)methyl)benzoate]
[1]
  Acid Log10 POW: 3.8
  Basic Log10 POW: 3.5
  Neutral Log10 POW: 3.5
[2]; Milli-RO water, * = estimated value, listed as Compound 5 N-Methyl-D-Glucamine salt
  solubility Milli-RO H20: >60,000* μg/mL
[2]; pH 4.0 buffer
  solubility pH 4.0 Buffer: 0.14 μg/mL
[2]; pH 7.0 buffer, * = estimated value, listed as Compound 5 N-Methyl-D-Glucamine salt
  solubility pH 7.0 Buffer: >60,000* μg/mL
[2]; pH 9.0 buffer, * = estimated value, listed as Compound 5 N-Methyl-D-Glucamine salt
  solubility pH 9.0 Buffer: >60,000* μg/mL
5% DSS colitis; 10 mg/kg daily for 7 days
  effect on DAI compared to vehicle control: no significant (P>0.05) effect

## O=C(O)c1ccc(C[C@]2(C3=Cc4ccccc4C3)Cc3ccccc3[C@@H]2O)cc1 (single isomer, unassigned) [Compound 3]
5% DSS colitis; 30 mg/kg p.o. daily for 7 days
  activity in 5% DSS murine colitis model (conclusion): minimal activity
5% DSS colitis; [4]
  disease activity index (DAI) at day 7: 5.3±0.6
5% DSS colitis; 30 mg/kg p.o. daily, FIG. 3
  DAI versus vehicle at day 6: no statistical (P>0.05) difference

## O=C(O)c1ccc(C[C@@]2(C3=Cc4ccccc4C3)Cc3ccccc3[C@H]2O)cc1 (single isomer, unassigned) [Compound 2]
[2]
  aqueous solubility (in words): limited aqueous solubility
5% DSS colitis; [5]
  disease activity index (DAI) at day 7: 2.1±0.7
5% DSS colitis; 30 mg/kg p.o. daily for 7 days
  activity in 5% DSS murine colitis model (conclusion): highly active
5% DSS colitis; [4]
  disease activity index (DAI) at day 7: 2.5±0.71

## C[C@]12C=CC(=O)C=C1CC[C@@H]1[C@@H]2[C@@H](O)C[C@@]2(C)[C@H]1CC[C@]2(O)C(=O)CO [Prednisolone, reference compound]
5% DSS colitis; 5 mg/Kg
  colon pathology (histology score) relative to vehicle: no significant improvement
5% DSS colitis; 5 mg/kg
  colon IL1β level versus DSS vehicle: reduced (p<0.05)
  colon TNFα level versus DSS vehicle: reduced (p<0.05)
  colon IL6 level versus DSS vehicle: reduced (p<0.05)
  DAI on the day of autopsy versus vehicle controls: reduced DAI scores
  inhibition of colon shortening (colon length) day 7 versus vehicle: did have a significant effect
5% DSS colitis; 5 mg/kg, P<0.05
  reduction of colonic myeloperoxidase (MPO) activity: 54%
